Assay results published in EP0619297B1, “Fungicides for the control of take-all desease of plants” (MONSANTO COMPANY, priority 1993, dated 1994).
In brackets after ≈: the same amount, converted by molar mass. One block for each compound: values may come before it.

What was measured:
[1] = tested on: Gaeumannomyces graminis var. tritici (Ggt); assay: In vitro assay: mycelial growth on minimal media agar plates (Percent Inhibition; IC50); assay type: cell-based; conditions: for inhibition at 0.1 ppm: 0.1 ppm in agar, read-out: In vitro(ppm) 0.1, Percent Inhibition; for inhibition at 0.1 ppm / inhibition at 1 ppm / inhibition at 10 ppm: 19 - 20 °C, 4 to 5 days; for inhibition at 1 ppm: 1 ppm in agar, read-out: In vitro(ppm) 1, Percent Inhibition; for inhibition at 10 ppm: 10 ppm in agar, read-out: In vitro(ppm) 10, Percent Inhibition; for IC50: interpolated from percent inhibition at 1, 0.1, 0.01, 0.001 and 0.0001 ppm
Protocol: The test compounds (0.25 mL of an appropriate stock solution in acetone) are incorporated into 25 mL minimal media agar [prepared by autoclaving a solution of 17.5 g Czapek Dox broth (Difco), 7.5 g purified agar or Bacto-agar (Difco), and 500 mL distilled/deionized water, and then adding 50 µL of 1 mg/mL thiamine hydrochloride and 50 µL of 1 mg/mL biotin in 5% ethanol] and plates are prepared.
Each plate is inoculated by placing in a triangular shape three 4-mm plugs of Gaeumannomyces graminis var. tritici (Ggt) grown on the minimal media agar described above. The plates are incubated in the dark at 19 - 20 °C for 4 to 5 days. The growth of the fungus is measured as the diameter of the mycelial growth. The result is expressed as Percent Inhibition, calculated as [1 - [(mm growth on treated plate - 4)/(mm growth on control plate - 4)]] x 100.
To determine IC5O values, an in vitro assay was run on each compound at the concentrations of 1, 0.1, 0.01, 0.001, and 0.0001 ppm. The percent inhibition was calculated for each concentration using the equation described in the in vitro assay under the section on Biological Assays. Using the two ordered pairs of (concentration, % inhibition) that bracket 50% inhibition of fungal growth, the concentration for 50% inhibition is calculated from the following equation. IC50 = [(50-I2 )C1 + (I1 -50)C2 ]/(I1 -I2 ), [formula] where C1 = 10C2.

Ggt [2] = assay: In vivo (8 week) seed treatment assay: Large Pot Greenhouse Take-All Assay; design: species or system Gaeumannomyces graminis var. tritici; conditions: wheat, 6-inch pots, roots rated after 7-10 weeks; for % control (rates are g/kg seed) 0.125: seed treatment 0.125 g/kg seed; for % control (rates are g/kg seed) 0.25: seed treatment 0.25 g/kg seed; for % control (rates are g/kg seed) 0.5: seed treatment 0.5 g/kg seed; for % control (rates are g/kg seed) 1 g: seed treatment 1 g/kg seed
Protocol: An advanced 8-week seed treatment in vivo assay in soil is as follows.
Compounds are tested for control of Ggt on 'Bergen' or 'Anza' varieties of wheat grown in 6-inch round pots containing soil (equal to thirds of Metro-mix, sand, and silt-loam field soil, all steam sterilized). Seeds are treated with a solution of compound of the present invention at 10,000 ppm stock solution in acetone. 20 mg in 2 ml will treat 10 g of seed at each of 4 rates. Using a 10,000 ppm stock for each compound make the following dilutions series:
A treatment jar is rinsed 2 times with 3 ml of actone. Then 1 ml of the solution is swirled to cover the base of the jar. 10 g of seed are added to the jar and capped after which the jar is swirled and shaken until the seeds get a rapid and even coverage. After about 30-50 seconds the lid is removed as the shaking is continued. After 1 minute the jar is set down to dry. When dry, the seed are poured back into the envelope for either planting in the pots or stored until such planting. The method of planting is as follows:
The 6-inch pots are packed to their ledge with the above soil mix.
a) Treated seed is placed on the surface of the soil (packed to ledge) at the rate of 8 seeds per pot with the seeds about 2-3 inches apart. 5 pots (replicates) are planted per treatment. b) 15 ml of oat inoculum (about 4g) are measured and sprinkled evenly over the soil surface of each pot. c) The soil/seed/inoculum is covered with 180 ml of soil mix (same as above). A 150 ml beaker filled to the top edge-is about 180 ml. d) Initially each of the prepared pots is watered lightly several times to wet soil without washing out seeds. e) In cool winter months the prepared pots are left in the greenhouse at 16° - 18°C with only minimal supplemental light. In warmer months the prepared pots are put in a growth chamber set at 17°C for 3-4 weeks to establish disease, then placed in a greenhouse until harvest. The wheat is harvested, washed, and the roots are rated after 7-10 weeks. f) A % of diseased root area is assigned values using 1, 5, 10, 20, 30, 40, 50, 60, 80, or 100 %. Each pot of plants gets a single rating.

Ggt [3] = assay: In vivo assay: control of Ggt on wheat in 3-inch pots with infested soil, rated after four weeks;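 on In vivo(ppm) 0.1, percent disease control: rate is mg active ingredient per pot in 3 mL solution not ppm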;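 on In vivo(ppm) 0.5, percent disease control: rate is mg active ingredient per pot in 3 mL solution not ppm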; design: species or system Gaeumannomyces graminis var. tritici; conditions: Gaeumannomyces graminis, 672 h, wheat, soil infested with Ggt, after four weeks; for pest or weed control at 0.02 mg/pot: rate 0.02mg/pot, read-out: In vivo(ppm) 0.02mg/pot, percent disease control; for pest or weed control at 0.1 mg/pot: rate 0.1 (head prints ppm, head line ends mg/pot), read-out: In vivo(ppm) 0.1, percent disease control; for pest or weed control at 0.1 mg/pot / pest or weed control at 0.5 mg/pot: N = no control; for pest or weed control at 0.5 mg/pot: rate 0.5 (head prints ppm, head line ends mg/pot), read-out: In vivo(ppm) 0.5, percent disease control
Protocol: Compounds are tested for control of Ggt on 'Bergen' or 'Anza' varieties of wheat grown in 3-inch square pots containing soil infested with Ggt. The infestation is accomplished by mixing the soil with an inoculum prepared by growing Ggt on 1/4 strength potato dextrose agar (4.875 g potato dextrose agar, 5.0 g Bacto agar, 500 mL distilled, deionized water) in plates and using plugs from the plates to infest sterile oats (400 cc whole oats, 350 mL deionized water, autoclaved). After a one-month incubation period at room temperature, the oats are dried and mixed with the soil at 4% v/v. Four wheat seeds are placed on top of the soil in each pot. […] Five pots are used for each treatment level and the controls, which are untreated, inoculated and non-inoculated pots. After one hour drying time, the seeds are covered with more of the appropriate soil and a layer of vermiculite. The pots are placed in a growth chamber and watered each day. After four weeks, each pot is evaluated for evidence of disease by examination of the seminal roots of each plant under a dissecting microscope. A 0 to 5 rating scale having the following meanings is used: • 0 = no runner hyphae or lesions present • 1 = runner hyphae and a few small lesions present on <10% of root system • 2 = runner hyphae and small lesions present on 10 - 25% of root system • 3 = runner hyphae and lesions present on 25 - 50% of root system • 4 = runner hyphae and many, large, coalescing lesions on >50% of root system • 5 = root system and culm completely inundated with lesions and runner hyphae
From each set of five replicates a high or low score may be eliminated to assure the best representative scores are used to calculate a replicate mean by averaging the remaining scores. This mean score is then compared to the untreated control score and a percent disease control is calculated.

Compound: CCNC(=O)c1c(OC(C)(C)CC)ccc2ccccc12 [Example 26, N-ethyl 2-[(1,1-dimethylpropyl)oxy]-1-naphthamide]
- inhibition at 0.1 ppm [1]: 76%
- inhibition at 1 ppm [1]: 95%
- inhibition at 10 ppm [1]: 98%
- % control (rates are g/kg seed) 0.125 (Ggt [2]): 25%
- % control (rates are g/kg seed) 0.25 (Ggt [2]): 25%
- % control (rates are g/kg seed) 0.5 (Ggt [2]): 4%
- % control (rates are g/kg seed) 1 g (Ggt [2]): 25%
- pest or weed control at 0.02 mg/pot (Ggt [3]): 17%
- pest or weed control at 0.1 mg/pot (Ggt [3]): 56%
- pest or weed control at 0.5 mg/pot (Ggt [3]): 84%

Compound: C=CCNC(=O)c1c(OC(C)(CC)CC)ccc2ccccc12 [Example 29, N-allyl 2-[(1,1-diethylethyl)oxy]-1-naphthamide]
- inhibition at 0.1 ppm [1]: 96%
- inhibition at 1 ppm [1]: 96%
- inhibition at 10 ppm [1]: 96%
- IC50 [1]: 8.14 ng/mL (≈ 0.0261 µM)
- % control (rates are g/kg seed) 0.25 (Ggt [2]): 0%
- % control (rates are g/kg seed) 0.5 (Ggt [2]): 4%
- % control (rates are g/kg seed) 1 g (Ggt [2]): 4%
- pest or weed control at 0.02 mg/pot (Ggt [3]): 40%
- pest or weed control at 0.1 mg/pot (Ggt [3]): 57%
- pest or weed control at 0.5 mg/pot (Ggt [3]): 75%

Compound: CCCNC(=O)c1c(OC(CC)(CC)CC)ccc2ccccc12 [Example 34, N-propyl 2-[(1,1-diethylpropyl)oxy]-1-naphthamide]
- inhibition at 0.1 ppm [1]: 95%
- inhibition at 1 ppm [1]: 95%
- inhibition at 10 ppm [1]: 95%
- IC50 [1]: 6.62 ng/mL (≈ 0.0202 µM)
- % control (rates are g/kg seed) 0.25 (Ggt [2]): 17%
- % control (rates are g/kg seed) 0.5 (Ggt [2]): 0%
- % control (rates are g/kg seed) 1 g (Ggt [2]): 9%
- pest or weed control at 0.02 mg/pot (Ggt [3]): 18%
- pest or weed control at 0.1 mg/pot (Ggt [3]): 44%
- pest or weed control at 0.5 mg/pot (Ggt [3]): 49%

Compound: CCCNC(=O)c1c(OC2(C)CCCCC2)ccc2ccccc12 [Example 40, N-propyl 2-[(1-methyl-1-cyclohexyl)oxy]-1-naphthamide]
- inhibition at 0.1 ppm [1]: 74%
- inhibition at 1 ppm [1]: 83%
- inhibition at 10 ppm [1]: 98%
- IC50 [1]: 63.6 ng/mL (≈ 0.195 µM)
- % control (rates are g/kg seed) 0.25 (Ggt [2]): 13%
- % control (rates are g/kg seed) 0.5 (Ggt [2]): 13%
- % control (rates are g/kg seed) 1 g (Ggt [2]): 22%
- pest or weed control at 0.02 mg/pot (Ggt [3]): 3%
- pest or weed control at 0.1 mg/pot (Ggt [3]): 32%
- pest or weed control at 0.5 mg/pot (Ggt [3]): 60%

Further lines, with some results ahead:

- IC50 [1]: 8.44 ng/mL (≈ 0.0284 µM)
Compound: C=CCNC(=O)c1c(OC(C)(C)CC)ccc2ccccc12 [Example 27, N-allyl 2-[(1,1-dimethylpropyl)oxy]-1-naphthamide]
- inhibition at 0.1 ppm [1]: 93%
- inhibition at 1 ppm [1]: 98%
- inhibition at 10 ppm [1]: 98%
- % control (rates are g/kg seed) 0.125 (Ggt [2]): 21%
- % control (rates are g/kg seed) 0.25 (Ggt [2]): 21%
- % control (rates are g/kg seed) 0.5 (Ggt [2]): 0%
- % control (rates are g/kg seed) 1 g (Ggt [2]): 25%
- pest or weed control at 0.02 mg/pot (Ggt [3]): 27%
- pest or weed control at 0.1 mg/pot (Ggt [3]): 75%
- pest or weed control at 0.5 mg/pot (Ggt [3]): 95%

- IC50 [1]: 7.43 ng/mL (≈ 0.0227 µM)
Compound: CCN(CC)C(=O)c1c(OC(C)(CC)CC)ccc2ccccc12 [Example 30, N,N-diethyl 2-[(1,1-diethylethyl)oxy]-1-naphthamide]
- inhibition at 0.1 ppm [1]: 91%
- inhibition at 1 ppm [1]: 96%
- inhibition at 10 ppm [1]: 96%
- % control (rates are g/kg seed) 0.25 (Ggt [2]): 22%
- % control (rates are g/kg seed) 0.5 (Ggt [2]): 0%
- % control (rates are g/kg seed) 1 g (Ggt [2]): 13%
- pest or weed control at 0.02 mg/pot (Ggt [3]): 31%
- pest or weed control at 0.1 mg/pot (Ggt [3]): 43%
- pest or weed control at 0.5 mg/pot (Ggt [3]): 28%

- IC50 [1]: 7.43 ng/mL (≈ 0.024 µM)
Compound: C=CCNC(=O)c1c(OC2(C)CCCC2)ccc2ccccc12 [Example 37, N-allyl 2-[(1-methyl-1-cyclopentyl)oxy]-1-naphthamide]
- inhibition at 0.1 ppm [1]: 93%
- inhibition at 1 ppm [1]: 98%
- inhibition at 10 ppm [1]: 98%
- % control (rates are g/kg seed) 0.125 (Ggt [2]): 4%
- % control (rates are g/kg seed) 0.25 (Ggt [2]): 4%
- % control (rates are g/kg seed) 0.5 (Ggt [2]): 4%
- % control (rates are g/kg seed) 1 g (Ggt [2]): 4%
- pest or weed control at 0.02 mg/pot (Ggt [3]): 28%
- pest or weed control at 0.1 mg/pot (Ggt [3]): 53%
- pest or weed control at 0.5 mg/pot (Ggt [3]): 63%
